# Experiments:
# Format in all cases: cell-based
# [1] = target: T1, human mineralocorticoid receptor (MR) (Homo sapiens, UniProt P08235); experiment: Cellular in vitro assay, GAL4-MR chimera luciferase reporter in CHO K1 cells (inhibitory MR activity); conditions: antagonism vs aldosterone; CHO K1 GAL4-MR LBD luciferase reporter
# T1 construct: expressed in transfected cells; host or cells: CHO K1
# T1 sequence (P08235 734-984 limits assumed): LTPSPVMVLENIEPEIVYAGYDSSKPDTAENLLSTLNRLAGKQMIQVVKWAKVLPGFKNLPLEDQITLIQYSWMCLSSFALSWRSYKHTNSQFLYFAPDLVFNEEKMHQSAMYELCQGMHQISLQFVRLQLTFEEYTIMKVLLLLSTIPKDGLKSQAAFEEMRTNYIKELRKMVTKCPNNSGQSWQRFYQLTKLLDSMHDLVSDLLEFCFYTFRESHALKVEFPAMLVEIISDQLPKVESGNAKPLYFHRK
# Source text: (§1) 1. Cellular In Vitro Assay to Determine the Inhibitory MR Activity and MR Selectivity Compared with Other Steroid Hormone Receptors
# (§2) Antagonists of the human mineralocorticoid receptor (MR) are identified, and the activity of the compounds described herein is quantified with the aid of a recombinant cell line. The cell is originally derived from a hamster ovary epithelial cell (Chinese Hamster Ovary, CHO K1, ATCC: American Type Culture Collection, VA 20108, USA).
# (§3) An established chimera system in which the ligand-binding domains of human steroid hormone receptors are fused to the DNA-binding domain of the yeast transcription factor GAL4 is used in this CHO K1 cell line. The GAL4-steroid hormone receptor chimeras produced in this way are cotransfected and stably expressed with a reporter construct in the CHO cells.
# (§4) To generate the GAL4-steroid hormone receptor chimeras, the GAL4 DNA-binding domain (amino acids 1-147) from the vector pFC2-dbd (from Stratagene) is cloned with the PCR-amplified ligand-binding domains of the mineralocorticoid receptor (MR, amino acids 734-985), of the progesterone receptor (PR, amino acids 680-933) and of the androgen receptor (AR, amino acids 667-919) into the vector pIRES2 (from Clontech). The reporter construct, which comprises five copies of the GAL4 binding site upstream of a thymidine kinase promoter, leads to expression of firefly luciferase (Photinus pyralis) after activation and binding of the GAL4-steroid hormone receptor chimeras by the respective specific agonists aldosterone (MR), dexamethasone (GR), progesterone (PR) and dihydrotestosterone (AR).
# (§5) The MR, PR and AR cells are plated out in medium (Optimem, 2.5% FCS, 2 mM glutamine, 10 mM HEPES) in 96- (or 384- or 1536-)well microtiter plates on the day before the assay and are kept in a cell incubator (96% humidity, 5% v/v CO2, 37° C.). On the day of the assay, the substances to be tested are taken up in the abovementioned medium and added to the cells. About 10 to 30 minutes after addition of the test substances, the respective specific agonists of the steroid hormone receptors are added. After a further incubation time of 5 to 6 hours, the luciferase activity is measured with the aid of a video camera. The measured relative light units as a function of the substance concentration result in a sigmoidal stimulation curve. The IC50 values are calculated with the aid of the GraphPad PRISM computer program (Version 3.02).
# [2] = target: T2, androgen receptor (AR) (Homo sapiens, UniProt P10275); experiment: Cellular in vitro assay, GAL4-AR chimera luciferase reporter in CHO K1 cells (selectivity); conditions: antagonism vs dihydrotestosterone; CHO K1 GAL4-AR LBD luciferase reporter
# T2 construct: of the androgen receptor (AR, amino acids 667-919); expressed in transfected cells; host or cells: CHO K1
# T2 sequence (P10275 668-920): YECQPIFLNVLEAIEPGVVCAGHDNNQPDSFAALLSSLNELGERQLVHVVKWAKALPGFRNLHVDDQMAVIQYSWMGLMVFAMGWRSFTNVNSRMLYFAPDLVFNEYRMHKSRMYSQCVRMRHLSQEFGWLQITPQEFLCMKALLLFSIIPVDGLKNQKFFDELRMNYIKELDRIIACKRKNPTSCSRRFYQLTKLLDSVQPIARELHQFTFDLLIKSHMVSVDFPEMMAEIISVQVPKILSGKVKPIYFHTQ
# Source text: as §1, §2, §3, §4, §5
# [3] = target: T3, progesterone receptor (PR) (Homo sapiens, UniProt P06401); experiment: Cellular in vitro assay, GAL4-PR chimera luciferase reporter in CHO K1 cells (selectivity); conditions: antagonism vs progesterone; CHO K1 GAL4-PR LBD luciferase reporter
# T3 construct: of the progesterone receptor (PR, amino acids 680-933); expressed in transfected cells; host or cells: CHO K1
# T3 sequence (P06401 680-933): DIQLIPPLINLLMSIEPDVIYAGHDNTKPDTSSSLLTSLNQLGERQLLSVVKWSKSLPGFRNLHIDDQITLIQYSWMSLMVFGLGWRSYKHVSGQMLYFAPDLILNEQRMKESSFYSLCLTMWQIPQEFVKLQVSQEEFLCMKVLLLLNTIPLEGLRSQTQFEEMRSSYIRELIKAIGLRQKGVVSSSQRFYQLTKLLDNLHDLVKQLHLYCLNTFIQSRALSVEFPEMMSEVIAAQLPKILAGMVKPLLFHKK
# Source text: as §1, §2, §3, §4, §5
Structure (SMILES),IC50 [1] [nM],IC50 [2] [nM],IC50 [3] [nM]
"CS(=O)(=O)Cc1cccc2c(C3(C4CC4)CCOc4cc(F)cc(F)c43)c[nH]c12 (stereo not shown) [Example 219, 3-(4-Cyclopropyl-5,7-difluoro-3,4-dihydro-2H-chromen-4-yl)-7-[(methylsulfonyl)methyl]-1H-indole]",42,2730,8120
"CS(=O)(=O)Cc1cccc2c(C(c3ccc(C(F)(F)F)cc3)C3CC3(F)F)c[nH]c12 (mixture of isomers) [Example 324, 3-{(2,2-Difluorocyclopropyl)[4-(trifluoromethyl)phenyl]methyl}-7-[(methylsulfonyl)methyl]-1H-indole]",400,,6900
"C[S+]([O-])Cc1cccc2c(C(c3ccc(Cl)cc3)c3ccc(Cl)cc3)c[nH]c12 (racemic) [Example 296, 3-[Bis(4-chlorophenyl)methyl]-7-[(methylsulfinyl)methyl]-1H-indole]",210,6570,4810
"CC(c1ccc(Cl)cc1)(c1c[nH]c2c(CS(C)(=O)=O)cccc12)C1CC1C#N (stereo not shown) [Example 106, 2-[1-(4-Chlorophenyl)-1-{7-[(methylsulfonyl)methyl]-1H-indol-3-yl}ethyl]cyclopropanecarbonitrile]",40,5310,11700
"Cc1cc(Cl)ccc1C(CCO)c1c[nH]c2c(CS(C)(=O)=O)cccc12 (stereo not shown) [Example 26, 3-(4-Chloro-2-methylphenyl)-3-{7-[(methylsulfonyl)methyl]-1H-indol-3-yl}propan-1-ol]",50,2230,2320
"C[S+]([O-])Cc1cccc2c(C(c3ccc(F)cc3)c3ccc(Cl)cc3F)c[nH]c12 (mixture of isomers) [Example 130, 3-[(4-Chloro-2-fluorophenyl)(4-fluorophenyl)methyl]-7-[(methylsulfinyl)methyl]-1H-indole]",100,5740,8880
"CSCc1cc(F)cc2c(C(CCC#N)c3ccc(Cl)cc3)c[nH]c12 (stereo not shown) [Example 43, 4-(4-Chlorophenyl)-4-{5-fluoro-7-[(methylsulfanyl)methyl]-1H-indol-3-yl}butanonitrile]",78,2920,1980
"CSCc1cc(F)cc2c(C(C)(c3ccc(Cl)cc3)C3CC3C#N)c[nH]c12 (stereo not shown) [Example 179, 2-[1-(4-Chlorophenyl)-1-{5-fluoro-7-[(methylsulfanyl)methyl]-1H-indol-3-yl}ethyl]cyclopropanecarbonitrile]",100,2030,1930
"CS(=O)(=O)Cc1cccc2c(C(c3ccc(F)cc3)c3ccc(Cl)cc3)c[nH]c12 (single isomer, unassigned) [Example 114-2, 3-[(4-Chlorophenyl)(4-fluorophenyl)methyl]-7-[(methylsulfonyl)methyl]-1H-indole]",220,1230,6550
"CS(=O)(=O)Cc1cccc2c(C(CCC#N)c3ccc(C(F)(F)F)cc3F)c[nH]c12 (stereo not shown) [Example 68, 4-[2-Fluoro-4-(trifluoromethyl)phenyl]-4-{7-[(methylsulfonyl)methyl]-1H-indol-3-yl}butanonitrile]",190,5070,3910
"CCC(CCC#N)(c1ccc(Cl)cc1)c1c[nH]c2c(C[S+](C)[O-])cccc12 (mixture of isomers) [Example 163, 4-(4-Chlorophenyl)-4-{7-[(methylsulfinyl)methyl]-1H-indol-3-yl}hexanonitrile]",29,4760,2720
"C[S+]([O-])Cc1cccc2c(C(CCC#N)c3ccc(Cl)cc3)c[nH]c12 (single isomer, unassigned) [Example 78-4, 4-(4-Chlorophenyl)-4-{7-[(methylsulfinyl)methyl]-1H-indol-3-yl}butanonitrile]",150,8890,7910
"CS(=O)(=O)Cc1cccc2c(C(CCCC#N)c3ccc(Cl)cc3)c[nH]c12 (stereo not shown) [Example 70, 5-(4-Chlorophenyl)-5-{7-[(methylsulfonyl)methyl]-1H-indol-3-yl}pentanonitrile]",250,9660,7750
"CS(=O)(=O)Cc1c(F)ccc2c(C(CCC#N)c3ccc(Cl)cc3)c[nH]c12 (stereo not shown) [Example 71, 4-(4-Chlorophenyl)-4-{6-fluoro-7-[(methylsulfonyl)methyl]-1H-indol-3-yl}butanonitrile]",320,3990,4470
"C[S+]([O-])Cc1cccc2c(C(c3c(F)cc(Cl)cc3F)C3CC3)c[nH]c12 (mixture of isomers) [Example 238, 3-[(4-Chloro-2,6-difluorophenyl)(cyclopropyl)methyl]-7-[(methylsulfinyl)methyl]-1H-indole]",190,,10000
"CSCc1cccc2c(C(C)(c3ccc(C(F)(F)F)cc3)C3CC3C#N)c[nH]c12 (stereo not shown) [Example 177, 2-(1-{7-[(Methylsulfanyl)methyl]-1H-indol-3-yl}-1-[4-(trifluoromethyl)phenyl]ethyl)cyclopropanecarbonitrile]",77,1940,5780
"CS(=O)(=O)Cc1cccc2c(C(c3ccc(Cl)cc3Cl)C3CC3(F)F)c[nH]c12 (single isomer, unassigned) [Example 325-2, 3-[(2,4-Dichlorophenyl)(2,2-difluorocyclopropyl)methyl]-7-[(methylsulfonyl)methyl]-1H-indole]",59,5250,6660
"CS(=O)(=O)Cc1cccc2c(C(CCC#N)c3ccc(Cl)cc3Cl)c[nH]c12 (stereo not shown) [Example 62, 4-(2,4-Dichlorophenyl)-4-{7-[(methylsulfonyl)methyl]-1H-indol-3-yl}butanonitrile]",60,7090,12800
"CSCc1cc(F)cc2c(C(c3ccc(C)cc3)C3CC3C#N)c[nH]c12 (stereo not shown) [Example 260, 2-[{5-Fluoro-7-[(methylsulfanyl)methyl]-1H-indol-3-yl}(4-methylphenyl)methyl]cyclopropane-carbonitrile]",39,9030,5230
"CCC(CCO)(c1ccc(Cl)cc1)c1c[nH]c2c(CSC)cccc12 (stereo not shown) [Example 140, 3-(4-Chlorophenyl)-3-{7-[(methylsulfanyl)methyl]-1H-indol-3-yl}pentan-1-ol]",270,6600,10000
"CSCc1cccc2c(C(CCC#N)c3ccc(Cl)cc3F)c[nH]c12 (single isomer, unassigned) [Example 38-1, 4-(4-Chloro-2-fluorophenyl)-4-{7-[(methylsulfanyl)methyl]-1H-indol-3-yl}butanonitrile]",16,1120,1510
"CSCc1cccc2c(C(c3ccc(F)cc3)c3ccc(Cl)cc3)c[nH]c12 (stereo not shown) [Example 100, 3-[(4-Chlorophenyl)(4-fluorophenyl)methyl]-7-[(methylsulfanyl)methyl]-1H-indole]",460,5240,10000

# — US20110201564A1, “SUBSTITUTED 7-SULFANYLMETHYL, 7-SULFINYLMETHYL AND 7-SULFONYLMETHYL INDOLES AND USE THEREOF” (BAYER SCHERING PHARMA AKTIENGESELLSCHAFT, priority 2008, published 2011)
